Experiment [1] deals with SUMOylation of His-RanGap (SUMO-E1 (SAE), SUMO-E2 (UBC9), GST-SUMO). The experiment in a line: HTRF assay measuring increase in SUMOylation of His-RanGap. The format is biochemical. As to conditions: His-RanGap substrate; HTRF 665/620 ratio; 30 min at room temperature; triplicate. Here is the method: Assay Measuring Increase in SUMOylation of his-RanGap.
We utilized an HTRF assay containing SUMO-E1 (SAE), SUMO-E2 (UBC9), GST-SUMO and His-RanGap, a known SUMO substrate, as well as the respective fluorescent antibodies. The assay was run in 1536-well plate format and the selected activators were chosen based on their ability to increase the FRET signal over a baseline level. In 1536-well white plates, 2 μl of phosphate buffered saline (assay buffer) was dispensed into columns 1 and 2, and 2 μl of Mixture 1 (37.5 nM E1 and 100 nM His-RanGap-1) in assay buffer (50 mM Tris-HCl pH 7.4, 0.3 mM DTT, 10 mM MgCl2, 0.005% Tween-20), was dispensed into columns 3-48. Using a pintool, 70 nl of 2 mM compounds in DMSO was dispensed to columns 5-48 and 70 nl of DMSO was dispensed to columns 1-4. Using the Thermo Scientific MultiDrop Combi, 2 μL of Mixture 2 (20 mM ATP, 12.5 nM E2 and 30 nM GST-SUMO in buffer) was dispensed to all wells and incubated for 30 min. at room temperature followed by 1 μl of 500 mM KF. Plates were read on a PheraStar in a HTRF mode (Ex: 337 nm; Em: 620/665 nm). The ratio of fluorescence 665 over 620 was utilized as a readout of the assay. Increase in SUMOylation was calculated by comparison to baseline level. Measurements were done in triplicate.
(In general: In TR-FRET formats the signal depends on donor and acceptor labels being close together.)

Experiment [2] has as its system CSM14.1 neuronal cells. In words: Rescue of CSM14.1 neurons from thapsigargin-induced cell death (ATPlite). The experiment is classed as cell-based. Particulars: Rattus norvegicus, Neuron; 15 μM thapsigargin, 20 h; 10 μM compound, 2 h preincubation; cellular ATP content; read-out: % CSM14.1 Cell Viability after treatment with 15 μM TG in Presence of 10 μM compound. The source says:
Ability of Compounds to Rescue CSM14.1 Neurons from Thapsigargin-Induced Cell Death.
To assess the ability of the compounds to rescue neurons from ER stress-induced cell death, the rat striatal neuroprogenitor cell line CSM14.1 was used. Endoplasmic reticulum (ER) stress has been established as the major cause of neuronal loss in stroke, ischemia, and neurodegeneration (Tajiri, S.; Oyadomari, S.; Yano, S.; Morioka, M.; Gotoh, T.; Hamada, J. I.; Ushio, Y.; Mori, M. Cell Death Differ. 2004, 11, 403-415; Kohno, K.; Higuchi, T.; Ohta, S.; Kumon, Y.; Sakaki, S. Neurosci. Lett. 1997, 224, 17-20; ladecola, C.; Zhang, F.; Casey, R.; Nagayama, M.; Ross, M. E. J. Neurosci. 1997, 17, 9157-9164). Thus, we used the known ER stress-causing agent thapsigargin (TG) to model the compromised state in vitro. TG causes 100% cell death in most cases, and compounds were assessed for neuroprotection by measuring cell viability when dosed at 10 μM. CSM14.1 cells were recovered from cultures by trypsinization and plated in 96-well plates and incubated overnight at 32° C. 5 μl of test compound was added to achieve a final concentration of […]. Salubrinal and DMSO without compound were used as positive and negative controls, respectively. After 2 h of preincubation, TG-containing DMEM was added to give a final concentration of 15 μM and incubated for an additional 20 h. Cell viability was assessed by a cellular ATP content assay (ATPlite, PerkinElmer Life Sciences).
Background: ATP-based viability assays read luminescence as a measure of living cells.

As usually defined, the viability is the share of living cells, or the viability signal relative to a control.

Turning to `Cc1cc(C)c2nc(NNC(=O)c3cc(=O)c4ccccc4o3)sc2c1` [Compound B2, N′-(4,6-Dimethylbenzo[d]thiazol-2-yl)-4-oxo-4H-chromene-2-carbohydrazide], in experiment [1], the “% INCREASE IN SUMOylation over endogenous baseline level” value (shortened to “% INCREASE IN SUMOylation”) was “C (C = 31%-40% increase)”. Besides, the viability at 10 µM in experiment [2] is 51 to 60%.
Consider `Cc1ccc2sc(NNC(=O)c3cc(=O)c4ccccc4o3)nc2c1C` [Compound B1, N′-(4,5-dimethylbenzo[d]thiazol-2-yl)-4-oxo-4H-chromene-2-carbohydrazide], for which the “% INCREASE IN SUMOylation” value in experiment [1] is “C (C = 31%-40% increase)”. For the same compound, the viability at 10 µM in experiment [2] lay in the range of 40 to 50%.
`COc1cccc2sc(NNC(=O)C3COc4ccccc4O3)nc12` (stereo not drawn) [Compound B3, N′-(4-methoxybenzo[d]thiazol-2-yl)-2,3-dihydrobenzo[b][1,4]dioxine-2-carbohydrazide]: the “% INCREASE IN SUMOylation” value in experiment [1] is listed as “A (A = 10%-20% increase)”. In addition, the viability at 10 µM in experiment [2] is 51 to 60%.

These data come from patent publication US20200190077A1, “NEUROPROTECTIVE HYDRAZIDES” (priority 2018, published 2020).
